Experiments:
onychomycosis [1] = conditions: standard oral treatment; survey Arch Dermatol 134(12):1551-1554, 1998; cited from earlier work
onychomycosis [2] = conditions: topical nail lacquer once daily, mild to moderate onychomycosis; combined results of two randomized, controlled trials; cited from earlier work
Trichophyton rubrum = assay: inhibition of propagation of Trichophyton rubrum; assay type: cell-based; conditions: acting alone or in combination
Description: An additional iron chelating agent, useful in the present invention, is an iron-chelating agent consisting of ciclopirox in conjunction with a light-blocking agent. Particularly, preferred iron chelating agents useful in the present invention are zinc pyrithione and Chelex-100. Pyrithione is 2-pyridinethiol-1-oxide and is a “bidentate ligand” that has the capacity to complex with metals other than zinc, such as iron. Chelex-100 is a styrene divinylbenzene copolymer containing paired iminodiacetate ions, which act as chelating groups for binding polyvalent metal ions.

CN(C/C=C/C#CC(C)(C)C)Cc1cccc2ccccc12 [terbinafine]
disease-free nails, share of cases (onychomycosis [1]): 35-50%

Cc1cc(C2CCCCC2)n(O)c(=O)c1 [ciclopirox]
complete resolution, share of treated patients (onychomycosis [2]): approximately 7%

zinc pyrithione
inhibitory effect on the propagation of Trichophyton rubrum (Trichophyton rubrum): potent inhibitory effect
